For series [1] the following is noted: cited from earlier work.
The nature of series [2]: Low pressure (175 psig) package boiler study of DEAE and DMAPA (Table IV). The note with it: for Feedwater concentration / Steam concentration: 175 psig boiler.
Method: A study of the effects of a relatively low pressure boiler on DEAE and DMAPA was undertaken. The study was conducted in a 175 psig package boiler. The boiler was operated at 41 cycles with no condensate return so that the amine present in the steam could only come from the feedwater and not from the return of condensate. DEAE and DMAPA were-fed simultaneously at 50 ppm to the feedwater. The boiler was operated overnight to allow the system to equilibrate. […] The concentrations were determined by gas chromatography.
A short description of series [3]: Lab scale test boiler, DMAPA feed, formation of DMA and TMA in feedwater (GC), 1,450 psig. It is filed as physicochemical. The note with it: for Feedwater composition: feedwater initially 200 ppm DMAPA; for Feedwater conductivity / Feedwater pH: DMAPA feed. The text has this: The following lab scale experiment verified the formation of DMA and TMA.
A research scale, electrically heated test boiler was charged with nitrogen sparged (a mechanical deaeration), demineralized water. The water was supplied by high pressure pump to a D-configuration stainless steel boiler having an internal volume of approximately 5 liters. Two 4000 watt Incoloy 800 resistance heaters produced a steam rate of approximately 17 lbs/hr at a steam pressure of 1,450 psig (correspond to a temperature of 593° F.).
Cycles of concentration were held at approximately 15 by controlling boiler blowdown rate to 1.1 lbs/hr. The saturated steam produced was routed back into the feed tank and mixed with the original feedwater. This follows common industry practice where for economy the maximum amount of condensate is returned to the boiler as feedwater. The feedwater initially contained 200 ppm of DMAPA (Aldrich 99%) and 1.4 ppm hydrazine for deaeration. The feedwater (to which the condensed steam was recycled) was analyzed by gas chromatography and DMA and TMA were quantitated by comparison to external standards.

A short description of series [4]: Table I properties of amines: basicity, distribution ratios, flash point. The format is physicochemical. An excerpt: The preferred relatively high molecular weight amine of the present invention is dimethylaminopropylamine (DMAPA) or N,N-dimethyl-1,3-propanediamine. […] When DMAPA is subjected to common boiler temperatures and pressures of from 100, and preferably over 200, to 1500 psig, the DMAPA will partially decompose. The partial decomposition of DMAPA forms DMA and TMA.

Series [5] in a line: Lab scale test boiler, DMAPA feed, formation of DMA and TMA in feedwater (GC), 1,450 psig. It is filed as physicochemical.
Series [6] can be described thus: Research boiler decomposition, 200 to 600 psig (FIG. 1). The note with it: virtually any pressure, especially above about 200 psig. It is filed as physicochemical. The text has this: Additional testing in a research boiler was undertaken at pressures of from 200 to 600 psig in 100 psig steps. The high molecular weight amines tested included DMAPA, DEAE and MOPA. The boiler system was operated at 100% condensate return at 15 cycles. Feed tank, steam and blowdown samples were taken at the end of each run and analyzed by gas chromatograph (GC).
A condensate modeling system was used to simulate the boiler runs and estimate. The theoretical steam concentration possible if no amine decomposition occurred. Using the theoretical concentration and the analytical value obtained from GC analysis, the percent decomposition was calculated and the results summarized in FIG. 1.

Series [7] in a line: Decomposition of feed amine at boiler conditions from steam concentration (Table III).
Method: The effects of common boiler/condensate temperature and pressure on relatively high molecular weight amine was studied. The relatively high molecular weight amines methoxypropylamine (MOPA) and DMAPA were exposed to boiler condition and the steam concentrations of the feed amines measured. From this information the percent decomposition was calculated.
A short description of series [8]: Additional testing of decomposition products of high molecular weight amines. The format is physicochemical. The following applies: for formation from DMAPA: additional testing with DMAPA.
For series [9] the following is noted: cited from earlier work. The source holds these as a separate data set.

Like-named read-outs stand apart in the source and are kept apart here. A value given as a limit tells only on which side of the number the result lay.

For the compound `CCNCC` [DEA, diethylamine], the Distribution ratio in series [1] (at 1000 psig) was 28.
On to `CCN(CC)CCO` [DEAE, diethylaminoethanol], for which the “hydrothermal stability” value in [2] (lower saturation pressures of this test (175 psig boiler)) is given as “hydrothermally stable”.
Turning to `CNC` [DMA, dimethylamine], the Feedwater composition in series [3] (22 hrs., sample 12) is recorded as 5 ppm; in series [3] (46 hrs., sample 13), 11 ppm; in series [3] (79 hrs., sample 14), 20 ppm; in [3] (94 hrs., sample 15), 25 ppm. Further, in [1], the pKa is given as 10.77. Moreover, the “Distribution ratio (DR)” value in series [1] (pressure not stated) is recorded as 2-5. Moreover, the “Flash Pt.” value in [4] was 60 °F. The results for the “Distribution ratio” value in series [4] (100 psig), in [4] (200 psig) and in series [4] (600 psig) were 2.4, 2.1 and 3.3, respectively. For the same compound, the “Basicity (pKa)” value in series [4] (single or first pKa) was 10.8. Further, the “volatility relative to DMAPA” value in series [5] was “significantly more volatile than DMAPA”.
For `CN(C)CCCN` [DMAPA, N,N-dimethyl-1,3-propanediamine], the “concentration of DMA and TMA with time on DMAPA addition” value in [3] (22 to 94 hrs.) was “steadily increasing concentration of DMA and TMA with time”. The Feedwater conductivity was 160 uS in series [3] (22 hrs.), 195 uS in series [3] (46 hrs.), 200 uS in series [3] (79 hrs.) and 230 uS in series [3] (94 hrs.). The “Feedwater pH” value in series [3] (22 hrs.) is 10.35; in series [3] (46 hrs.), 10.40; in [3] (79 hrs.), 10.65; in [3] (94 hrs.), 10.35. In addition, the Feedwater concentration in [2] (time 1) was determined as 44 ppm; in series [2] (time 2), 44 ppm; in series [2] (time 3) it was 45 ppm; in series [2] (time 4), 44 ppm; in [2] (time 5) it was 46 ppm; in series [2] (time 6), 44 ppm. The compound also returned a Feedwater concentration in series [2] (time 7) of 38 ppm. Besides, the Steam concentration in series [2] (time 1), in [2] (time 2), in [2] (time 3), in series [2] (time 4), in [2] (time 5) and in series [2] (time 6) was 42 ppm throughout. For the same compound, the Steam concentration in series [2] (time 7) worked out at 40 ppm; in [7] (200 psig, feedwater 106 ppm), 98.4 ppm; in series [7] (600 psig, feedwater 106 ppm), 78.8 ppm; in series [7] (900 psig, feedwater 106 ppm), 68.7 ppm; in series [7] (1450 psig, feedwater 106 ppm), 37.3 ppm. Moreover, in series [6], the “decomposition compared to MOPA” value was “significantly higher than MOPA”. For the same compound, the “Flash Pt.” value in [4] is 84 °F. Further, the “Distribution ratio” value is recorded as 1.1 in series [4] (100 psig), 1.9 in series [4] (200 psig) and 2.0 in series [4] (600 psig). Also, the pKa stood at 8.2 in [4] (second of two pKa values, read-out: Basicity (pKa), second value) and 10 in [4] (single or first pKa, read-out: Basicity (pKa)).
On to `CN` [MA, methylamine], for which the “formation from DMAPA” value in [8] is “confirmed”.
For `COCCCN` [MOPA, methoxypropylamine], the “decomposition at boiler conditions” value in [8] (temperature and pressure common to a typical boiler/condensate steam system) is “do not decompose”. Besides, the “stability at boiler conditions” value in series [7] (1500 psig) is on record as “essentially stable”. In addition, in series [7] (1500 psig, feedwater 61 ppm), the “% Decomposition” value was determined as 4.9% and the “Steam concentration” value came out at 58 ppm. For the same compound, in [7] (2500 psig, feedwater 61 ppm), the “% Decomposition” value is recorded as 24.6% and the “Steam concentration” value amounted to 46 ppm.
Turning to `C1COCCN1` [Morpholine], in series [9] (at atmospheric pressure), the Distribution ratio is reported as 0.4.
As for `CN(C)C` [TMA, trimethylamine], the Feedwater composition is on record as 9 ppm in series [3] (22 hrs., sample 12); 16 ppm in series [3] (46 hrs., sample 13); 25 ppm in series [3] (79 hrs., sample 14); 32 ppm in series [3] (94 hrs., sample 15). Moreover, the “times more volatile than cyclohexylamine” value in series [1] (at boiler pressures from 100 to 1500 psig) is reported as 2-5 times. Besides, the “Flash Pt.” value in [4] stood at 20 °F. In addition, in [5], the “volatility relative to DMAPA” value was “significantly more volatile than DMAPA”.
For `N` [ammonia], the Distribution ratio in series [9] (at atmospheric pressure) is 10.0.
In the case of `O=C=O` [carbon dioxide], in series [9] (depending upon temperature), the Distribution ratio is reported as no less than 100.
For the compound `NC1CCCCC1` [cyclohexylamine], the Distribution ratio in series [9] (at atmospheric pressure) was 4.0.
In the case of `CC(O)CN(C)C` (centres unmarked) [dimethylisopropanol amine], the Distribution ratio in [9] (at atmospheric pressure) was 1.7.
Consider dimethylaminopropanol [DMAP], for which, in [8], the “formation from DMAPA” value is “confirmed”.
